We go through 21 molecules from patent US5733913A, “6-Aryl pyrido[2,3-d] pyrimidines and naphthyridines for inhibiting protein tyrosine kinase mediated cellular proliferation” (priority 1995, dated 1998).

pIC50: −log10 of the molar value. Where two headings read alike, the source gives them in different places.

What all share (type): biochemical
One assay deals with T1, C-src kinase (Homo sapiens, UniProt P12931).
T1 construct: made in house; host or cells: baculovirus-infected insect cells
The experiment in a line: C-src kinase assay. The conditions noted are these: for pIC50: read-out: Inhibition of Protein Tyrosine Kinases, C-src, IC50; for inhibition at 50 µM: read-out: Inhibition of Protein Tyrosine Kinases, C-src, % Inhibition. How it is done: V-src and C-src Kinase Assays
V-src or C-src kinase is purified from baculovirus infected insect cell lysates using an antipeptide monoclonal antibody directed against the N-terminal 2-17 amino acids. The antibody, covalently linked to 0.65-μm latex beads, is added to a suspension of insect cell lysis buffer comprised of 150 mM NaCl, 50 mM Tris pH 7.5, 1 mM DTT, 1% NP-40, 2 mM EGTA, 1 mM sodium vanadate, 1 mM PMSF, 1 μg/mL each of leupeptin, pepstatin, and aprotinin. […] At the end of the lysate incubation, the beads are rinsed 3 times in lysis buffer, resuspended in lysis buffer containing 10% glycerol, and frozen. These latex beads are thawed, rinsed three times in assay buffer which is comprised of 40 mM tris pH 7.5, 5 mM MgCl2, and suspended in the same buffer. In a Millipore 96-well plate with a 0.65 μm polyvinylidine membrane bottom are added the reaction components: 10-μL v-src or c-src beads, 10 μL of 2.5 mg/mL poly GluTyr substrate, 5 μM ATP containing 0.2 μCi labeled ^32 P-ATP, 5μL DMSO containing inhibitors or as a solvent control, and buffer to make the final volume 125 μL. The reaction is started at room temperature by addition of the ATP and quenched 10 minutes later by the addition of 125 μL of 30% TCA, 0.1M sodium pyrophosphate for 5 minutes on ice. The plate is then filtered and the wells washed with two 250-μL aliquots of 15% TCA, 0.1M pyrophosphate. The filters are punched, counted in a liquid scintillation counter, and the data examined for inhibitory activity in comparison to a known inhibitor such as erbstatin. The method is described more fully in J. Med. Chem., 37:598-609 (1994).

Assay [1] has as its target T2, human FGF-1 (flg) receptor tyrosine kinase (Homo sapiens, UniProt P11362).
T2 construct: a fragment of DNA that codes for the intracellular tyrosine kinase domain; made in house; host or cells: Sf9 insect cells (baculovirus), cell lysate
In words: FGF receptor tyrosine kinase assay. The conditions noted are these: for pIC50: read-out: Inhibition of Protein Tyrosine Kinases, FGF, IC50. The source says: (§1) PDGF and FGF Receptor Tyrosine Kinase Assays
(§2) Full length cDNAs for the mouse PDGF-β and human FGF-1 (flg) receptor tyrosine kinases were obtained from J. Escobedo and prepared as described in J. Biol. Chem., 262:1482-1487 (1991), and PCR primers were designed to amplify a fragment of DNA that codes for the intracellular tyrosine kinase domain. The fragment was melded into a baculovirus vector, cotransfected with AcMNPV DNA, and the recombinant virus isolated. SF9 insect cells were infected with the virus to overexpress the protein, and the cell lysate was used for the assay. […] Briefly, to each well was added 82.5 μL of incubation buffer containing 25 mM Hepes (pH 7.0), 150 mM NaCl, 0.1% Triton X-100, 0.2 mM PMSF, 0.2 mM Na3 VO4, 10 mM MnCl2, and 750 μg/mL of Poly (4:1) glutamate-tyrosine followed by 2.5 μL of inhibitor and 5 μL of enzyme lysate (7.5 μg/μL FGF-TK or 6.0 μg/μL PDGF-TK) to initiate the reaction. Following a 10 minute incubation at 25° C., 10 μL of γ^32 P-ATP (0.4 μCi plus 50 μM ATP) was added to each well and samples were incubated for an additional 10 minutes at 25° C. The reaction was terminated by the addition of 100 μL of 30% trichloroacetic acid (TCA) containing 20 mM sodium pyrophosphate and precipitation of material onto glass fiber filter mats (Wallac). […] Nonspecific activity was defined as radioactivity retained on the filters following incubation of samples with buffer alone (no enzyme). Specific enzymatic activity was defined as total activity (enzyme plus buffer) minus nonspecific activity.

Assay [2] deals with T3, mouse PDGF-β receptor tyrosine kinase (Mus musculus, UniProt P05622).
T3 construct: a fragment of DNA that codes for the intracellular tyrosine kinase domain; made in house; host or cells: Sf9 insect cells (baculovirus), cell lysate
The experiment in a line: PDGF receptor tyrosine kinase assay. The conditions noted are these: for pIC50: read-out: Inhibition of Protein Tyrosine Kinases, PDGF, IC50; for inhibition at 50 µM: read-out: Inhibition of Protein Tyrosine Kinases, PDGF, % Inhibition.
Text: as §1, §2

T3 sequence (P05622 599-961 limits assumed): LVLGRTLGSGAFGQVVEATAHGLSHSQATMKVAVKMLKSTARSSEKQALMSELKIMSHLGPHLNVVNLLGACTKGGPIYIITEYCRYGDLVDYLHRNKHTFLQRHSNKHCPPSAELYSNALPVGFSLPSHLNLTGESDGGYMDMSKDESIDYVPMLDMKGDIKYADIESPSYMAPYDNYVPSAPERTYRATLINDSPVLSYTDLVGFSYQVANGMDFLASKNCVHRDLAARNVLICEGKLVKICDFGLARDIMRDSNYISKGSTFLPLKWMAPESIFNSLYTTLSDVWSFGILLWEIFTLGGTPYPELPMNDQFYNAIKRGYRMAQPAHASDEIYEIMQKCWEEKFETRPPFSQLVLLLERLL
T1 sequence (P12931 whole entry): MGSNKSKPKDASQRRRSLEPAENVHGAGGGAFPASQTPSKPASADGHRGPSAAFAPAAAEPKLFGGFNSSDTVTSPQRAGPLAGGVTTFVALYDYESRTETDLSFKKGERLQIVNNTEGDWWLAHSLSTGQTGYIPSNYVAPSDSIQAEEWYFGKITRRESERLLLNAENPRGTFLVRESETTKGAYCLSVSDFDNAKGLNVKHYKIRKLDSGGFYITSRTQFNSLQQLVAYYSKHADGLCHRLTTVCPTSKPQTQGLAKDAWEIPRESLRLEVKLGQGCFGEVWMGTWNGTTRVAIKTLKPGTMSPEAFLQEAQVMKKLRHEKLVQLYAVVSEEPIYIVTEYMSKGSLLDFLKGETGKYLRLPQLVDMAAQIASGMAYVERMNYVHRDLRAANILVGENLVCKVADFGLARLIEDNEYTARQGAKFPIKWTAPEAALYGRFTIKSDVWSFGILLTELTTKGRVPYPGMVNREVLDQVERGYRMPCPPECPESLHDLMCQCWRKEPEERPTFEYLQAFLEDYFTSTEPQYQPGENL
T2 sequence (P11362 478-767 limits assumed): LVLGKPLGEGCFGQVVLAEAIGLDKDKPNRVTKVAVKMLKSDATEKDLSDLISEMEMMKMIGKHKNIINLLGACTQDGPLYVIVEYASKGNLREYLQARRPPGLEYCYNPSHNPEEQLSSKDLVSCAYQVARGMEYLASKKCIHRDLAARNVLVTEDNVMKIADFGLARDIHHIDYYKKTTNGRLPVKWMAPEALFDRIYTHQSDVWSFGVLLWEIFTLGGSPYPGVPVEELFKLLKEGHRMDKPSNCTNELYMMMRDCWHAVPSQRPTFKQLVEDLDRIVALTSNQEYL

Usually pIC50 stands for −log10 of the IC50, conventionally taken in molar units. Regarding `CN1CCN(CCCNc2ncc3cc(-c4c(Cl)cccc4Cl)c(N)nc3n2)CC1` [Example 36, N^2-[3-(4-methyl-piperazin-1-yl)-propyl]-6-(2,6-dichlorophenyl)-pyrido[2,3-d]pyrimidine-2,7-diamine], the pIC50 on C-src kinase was 6.74; in assay [1] it was 6.28; in assay [2], 4.64.

Take `CC(C)NC(=O)Nc1nc2nc(NCCCN3CCN(C)CC3)ncc2cc1-c1c(Cl)cccc1Cl` [Example 38]: the results for the pIC50 (at C-src kinase; in assay [1]; in assay [2]) were 7.72, 7.33 and 6.44, respectively.

Take `COc1ccccc1NC(=O)Nc1nc2nc(NCCCN3CCN(C)CC3)ncc2cc1-c1c(Cl)cccc1Cl` [Example 43, 1-{6-(2,6-Dichlorophenyl)-2-[3-(4-methyl-piperazin-1-yl)-propylamino]-pyrido[2,3-d]pyrimidin-7-yl}-3-(2-methoxy-phenyl)-urea]: the pIC50 at C-src kinase is 7.96; in assay [1], 7.04; in assay [2], 6.39.

Turning to `CN1CCN(CCCNc2ncc3cc(-c4c(Cl)cccc4Cl)c(NC(=O)Nc4ccc(Br)cc4)nc3n2)CC1` [Example 44, 1-(4-Bromo-phenyl)-3-{6-(2,6-dichlorophenyl)-2-[3-(4-methyl-piperazin-1-yl)-propylamino]-pyrido[2,3-d]pyrimidin-7-yl}-urea], the negative-log IC50 (pIC50) on C-src kinase is 7.64; in assay [1], 6.71; in assay [2], 5.81.

Consider `CN1CCN(CCCNc2ncc3cc(-c4c(Cl)cccc4Cl)c(NC(=O)Nc4ccc(Cl)cc4)nc3n2)CC1` [Example 45, 1-(4-Chloro-phenyl)-3-{6-(2,6-dichlorophenyl)-2-[3-(4-methyl-piperazin-1-yl)-propylamino]-pyrido[2,3-d]pyrimidin-7-yl}-urea], for which the pIC50 is 7.40 at C-src kinase, 6.70 in assay [1] and 5.73 in assay [2].

For `CCCCCCCCNC(=O)Nc1nc2nc(NCCCN3CCN(C)CC3)ncc2cc1-c1c(Cl)cccc1Cl` [Example 47, 1-{6-(2,6-Dichlorophenyl)-2-[3-(4-methyl-piperazin-1-yl)-propylamino]-pyrido[2,3-d]pyrimidin-7-yl}-3-octyl-urea], the pIC50 was 6.79 at C-src kinase, 6.20 in assay [1] and 5.21 in assay [2].

In the case of `CN1CCN(CCCNc2ncc3cc(-c4c(Cl)cccc4Cl)c(NC(=O)Nc4ccc(C(F)(F)F)cc4)nc3n2)CC1` [Example 48, 1-{6-(2,6-Dichlorophenyl)-2-[3-(4-methyl-piperazin-1-yl)-propylamino]-pyrido[2,3-d]pyrimidin-7-yl}-3-(4-trifluoromethyl-phenyl)-urea], the pIC50 is 6.59 on C-src kinase, 6.21 in assay [1] and 5.27 in assay [2].

Regarding `CCNC(=O)Nc1nc2nc(NCCCN3CCN(C)CC3)ncc2cc1-c1c(Cl)cccc1Cl` [Example 49, 1-{6-(2,6-Dichlorophenyl)-2-[3-(4-methyl-piperazin-1-yl)-propylamino]-pyrido[2,3-d]pyrimidin-7-yl}-3-ethyl-urea], the pIC50 at C-src kinase was 7.62; in assay [1] it was 7.27; in assay [2], 6.38.

As to `CCN(CC)CCCCNc1ncc2cc(-c3c(Cl)cccc3Cl)c(N)nc2n1` [Example 53, 6-(2,6-Dichlorophenyl)-N^2-(4-diethylamino-butyl)-pyrido[2,3-d]pyrimidine-2,7-diamine], the pIC50 at C-src kinase was 6.82; in assay [1], 6.16; in assay [2], 5.15.

The term inhibition denotes the drop in the measured response relative to a control, in per cent. As for `Nc1nc2nc(NCCCN3CCOCC3)ncc2cc1-c1c(Cl)cccc1Cl` [Example 58, 6-(2,6-Dichlorophenyl)-N^2-(3-morpholin-4-yl-propyl)-pyrido[2,3-d]pyrimidine-2,7-diamine], the inhibition at 50 µM at C-src kinase (at 50 μM) came to 110%. Further, the figures for the pIC50 in assay [1] and in assay [2] were 5.46 and 4.72, respectively.

Consider `CCN(CC)CCCNc1ncc2cc(-c3c(Br)cccc3Br)c(N)nc2n1` [Example 61, 6-(2,6-Dibromo-phenyl)-N^2-[3-diethylamino-propyl)-pyrido[2,3-d]pyrimidine-2,7-diamine], for which the negative-log IC50 (pIC50) at C-src kinase was 6.12; in assay [1], 5.11; in assay [2] it was 4.34.

For `Nc1ncc2cc(-c3c(F)cccc3F)c(N)nc2n1` [Example 63, 6-(2,6-Difluoro-phenyl)-pyrido[2,3-d]pyrimidine-2,7-diamine], the pIC50 on C-src kinase was 5.75; in assay [1], 6.27; in assay [2], 5.15.

Regarding `COc1cccc(OC)c1-c1cc2cnc(N)nc2nc1N` [Example 64, 6-(2,6-Dimethoxy-phenyl)-pyrido[2,3-d]pyrimidine-2,7-diamine], the inhibition at 50 µM stood at 0% on C-src kinase (at 50 μM); 23.8% in assay [1] (at 50 μM, read-out: Inhibition of Protein Tyrosine Kinases, FGF, % Inhibition); 13% in assay [2].

On to `CCN(CC)CCNc1ncc2cc(-c3c(Cl)cccc3Cl)c(N)nc2n1` [Example 65, 6-(2,6-Dichlorophenyl)-N^2-(2-diethylamino-ethyl)-pyrido[2,3-d]pyrimidine-2,7-diamine], for which the inhibition at 50 µM was 95% at C-src kinase (at 50 μM) and 29.6% in assay [2]. In addition, the pIC50 in assay [1] was 4.77.

Regarding `CCN(CCO)CCCNc1ncc2cc(-c3c(Cl)cccc3Cl)c(N)nc2n1` [Example 70, 2-({3-[7-Amino-6-(2,6-dichlorophenyl)-pyrido[2,3-d]pyrimidin-2-ylamino]-propyl}-ethyl-amino)-ethanol], the figures for the pIC50 (at C-src kinase; in assay [1]; in assay [2]) were 6.03, 5.59 and 4.50, respectively.

`CCN(CC)CCCNc1ncc2cc(-c3c(Cl)cccc3Cl)c(N=CN(C)C)nc2n1` [Example 78, N'-[6-(2,6-Dichlorophenyl)-2-{3-(diethylamino)propyl-amino}pyrido[2,3-d]pyrimidin-7-yl]-N,N-dimethylformamidine]: the pIC50 at C-src kinase was 5.40; in assay [1], 5.40; in assay [2] it was 4.48.

Take `CC(C)(C)NC(=O)Nc1nc2nc(N)ncc2cc1-c1ccccc1` [Example 82, 1-(2-Amino-6-phenyl-pyrido[2,3-d]pyrimidin-7-yl)-3-tert-butyl-urea]: the inhibition at 50 µM at C-src kinase (at 50 μM) came to 77.6%. Moreover, the values for the pIC50 in assay [1] and in assay [2] were 5.43 and 5.33, respectively.

Take `CC(C)(C)NC(=O)Nc1nc2nc(N)ncc2cc1-c1cccc(Cl)c1Cl` [Example 84, 1-[2-Amino-6-(2,3-dichlorophenyl)-pyrido[2,3-d]pyrimidin-7-yl]-3-tert-butyl-urea]: the values for the pIC50 (at C-src kinase; in assay [1]; in assay [2]) were 5.42, 6.79 and 5.65, respectively.

In the case of `Nc1ncc2cc(-c3c(Cl)ccc(Cl)c3Cl)c(N)nc2n1` [Example 85, 6-(2,3,6-Trichloro-phenyl)-pyrido[2,3-d]pyrimidine-2,7-diamine], the pIC50 on C-src kinase is 5.35; in assay [1] it was 6.89; in assay [2], 5.12.

`CC(C)(C)NC(=O)Nc1nc2nc(N)ncc2cc1-c1c(Cl)ccc(Cl)c1Cl` [Example 86, 1-[2-Amino-6-(2,3,6-trichloro-phenyl)-pyrido[2,3-d]pyrimidin-7-yl]-3-tert-butyl-urea]: the pIC50 on C-src kinase is 5.85; in assay [1] it was 6.94; in assay [2], 5.53.

For the molecule `CC(C)(C)NC(=O)Nc1nc2nc(N)ncc2cc1-c1c(F)cccc1F` [Example 87, 1-[2-Amino-6-(2,6-difluoro-phenyl)-pyrido[2,3-d]pyrimidin-7-yl]-3-tert-butyl-urea], the inhibition at 50 µM at C-src kinase came to 92.7%. The pIC50 in assay [1] was 6.93; in assay [2], 5.73.
